Results taken from US10294212B2 (CURADEV PHARMA PRIVATE LTD., priority 2013, dated 2019).
Where a name gives a salt, the structure may show the parent alone.

How the values were obtained:
[1] = target: Human TDO (hTDO)-transfected CHO-K1 cells (Homo sapiens (Human), UniProt P48775); assay: CHO-K1 cell based TDO assay; settings: hTDO cellular assay
Protocol: Human TDO (hTDO)-transfected CHO-K1 cells were used to identify test compounds that inhibit TDO activity and reduce Kynurenine production. CHO-K1 cells (ATCC) were cultured in DMEM supplemented with sodium bicarbonate (2.1 g/L), HEPES (4.1 g/L), L-glutamine (2 mM), non-essential amino acid (84 mg/L) and fetal bovine serum (10%) and maintained at 95% humidity and 5% CO2 in a 37° C. incubator. The TDO gene (TDO2) (Accession number NM_005651.1) was purchased from Origene (USA) and stably expressed in CHO-Kl cells using the expression vector pcDNA4/Myc-HisB Hygro (Life Technologies, USA). TDO-expressing clones were identified based on the kynurenine production by the cells. Expanded clones were used for assay as described below. Unless otherwise stated, all materials were procured from Sigma.
hTDO transfected CHO-K1 cells (0.05 million/well) were seeded in a 96-well plate and maintained overnight in DMEM containing 10% FBS (200 μL) at 95% humidity and 5% CO2 in a 37° C. incubator. The following day, cells were washed and incubated with test compounds (typically 31 μM to 10 nM, final volume 150 μL) in Hanks Balanced Salt Solution (HBSS) containing 80 μM L-tryptophan for 2 hours. Supernatant (150 μL) from the cells was treated with 30% TCA ([…]) to precipitate proteins. Supernatants were further incubated at 65° C. for 15 min to convert N-formylkynurenine to kynurenine. KYN in the supernatant was measured by LC/MS/MS using an API4000 mass spectrometer (Applied Biosystems) coupled to a Shimadzu Prominence LC system fitted with a C18 column.
Percent inhibition of the test compounds was determined by measuring the decrease in KYN as compared to the reaction control (DMSO vehicle). IC50 values were calculated using Graph Pad Prism® 5 as described above.

[2] = target: Human indoleamine 2,3-dioxygenase1 (hIDO1) (Homo sapiens (Human), UniProt P14902); assay: In-vitro IDO1 enzyme assay (conversion of L-tryptophan to KYN); type: biochemical; settings: read-out: IC50 (IDO1) Enz
Chain of Human indoleamine 2,3-dioxygenase1 (hIDO1) (P14902 whole entry): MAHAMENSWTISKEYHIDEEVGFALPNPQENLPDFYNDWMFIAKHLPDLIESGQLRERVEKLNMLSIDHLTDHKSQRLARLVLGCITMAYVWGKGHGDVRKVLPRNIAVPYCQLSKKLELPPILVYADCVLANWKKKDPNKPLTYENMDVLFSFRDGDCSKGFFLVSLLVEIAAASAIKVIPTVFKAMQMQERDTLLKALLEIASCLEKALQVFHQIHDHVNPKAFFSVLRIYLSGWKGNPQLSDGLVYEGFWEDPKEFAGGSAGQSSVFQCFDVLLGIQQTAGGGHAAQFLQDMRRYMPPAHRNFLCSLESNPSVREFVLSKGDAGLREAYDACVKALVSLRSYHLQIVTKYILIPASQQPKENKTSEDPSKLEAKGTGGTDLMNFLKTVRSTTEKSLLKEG
Source text: Human indoleamine 2,3-dioxygenasel (hIDO1) catalyzes the oxidative cleavage of the pyrrole ring of the indole nucleus of tryptophan to yield N-formylkynurenine which can be converted to kynurenine (KYN) by deformylation. hIDO1 with an N-terminal His tag, expressed and purified from E. coli cells was procured from either Enzo LifeScienccs, NY, USA). Unless otherwise stated, all materials were procured from Sigma Aldrich, Mo., USA.
The assay monitoring the conversion of L-tryptophan to KYN was carried out as follows. hIDO1 (10 nM) was incubated with tryptophan (30 μM) in the presence of ascorbic acid (20 mM), methylene blue (10 μM) and catalase (100 μg/mL) in potassium phosphate buffer (50 mM; pH 6.5) at 37C for 30 min. The reaction was terminated with 30% trichloroacetic acid (TCA) and further incubated at 65C for 15 min to fully convert N-formylkynurenine to KYN. The reaction mixture was then centrifuged to remove sediments and the KYN in the supernatant was estimated by UV-visible absorption spectroscopy at 360 nm using a Waters HPLC system fitted with a C-18 column or by LC/MS/MS. See, Sono, 1980, J. Biol. Chem., 255:1339-1345, which is herein incorporated by reference.
Percent inhibition at each concentration of test compounds was determined by estimating the decrease in KYN with reference to the reaction control with 1% DMSO vehicle. Data were analyzed using nonlinear regression to generate IC50 values using Graph Pad Prism® 5.

Chain of Human TDO (hTDO)-transfected CHO-K1 cells (P48775 whole entry): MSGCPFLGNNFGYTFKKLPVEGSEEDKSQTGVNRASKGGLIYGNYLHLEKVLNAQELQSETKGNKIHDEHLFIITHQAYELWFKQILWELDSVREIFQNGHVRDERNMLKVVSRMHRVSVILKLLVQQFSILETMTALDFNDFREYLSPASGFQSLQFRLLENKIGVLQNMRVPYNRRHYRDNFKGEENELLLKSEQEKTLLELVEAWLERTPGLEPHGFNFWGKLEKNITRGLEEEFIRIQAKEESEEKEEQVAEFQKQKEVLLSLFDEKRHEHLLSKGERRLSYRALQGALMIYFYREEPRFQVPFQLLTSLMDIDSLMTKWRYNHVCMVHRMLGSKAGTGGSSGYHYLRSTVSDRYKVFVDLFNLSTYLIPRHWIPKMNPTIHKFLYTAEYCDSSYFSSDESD

SMILES | IC50 [1] [nM] | IC50 [2] [nM]
CCOC(=O)Nc1oc2c(I)nccc2c1N(C(=O)OCC)c1ccc(F)c(Cl)c1 [Compound 156, Ethyl (3-chloro-4-fluorophenyl)(2-((ethoxycarbonyl)amino)-7-iodofuro[2,3-c]pyridin-3-yl)carbamate] | > 2000 | > 1000
Nc1oc2cnccc2c1Nc1cccnc1 [Compound 49, N^3-(Pyridin-3-yl)furo[2,3-c]pyridine-2,3-diamine] | 500 to 2000 | > 1000
Nc1oc2c(-c3ccc(F)c(F)c3F)nccc2c1Nc1ccc(F)c(Cl)c1 [Compound 171, N^3-(3-Chloro-4-fluorophenyl)-7-(2,3,4-trifluorophenyl)furo[2,3-c]pyridine-2,3-diamine] | – | < 200
Nc1oc2cnccc2c1Nc1ccccc1N1CCCCC1 [Compound 24, N^3-(2-(Piperidin-1-yl)phenyl)furo[2,3-c]pyridine-2,3-diamine] | > 2000 | > 1000
CCOC(=O)Nc1oc2c(Br)nccc2c1N(C(=O)OCC)c1ccc(F)c(Cl)c1 [Compound 161, Ethyl (7-bromo-2-((ethoxycarbonyl)amino)furo[2,3-c]pyridin-3-yl)(3-chloro-4-fluorophenyl)carbamate] | > 2000 | > 1000
Cc1cc(-c2cccc3c(Nc4ccccc4)c(N)sc23)ccn1 [Compound 265, 7-(2-Methylpyridin-4-yl)-N^3-phenylbenzo[b]thiophene-2,3-diamine] | 500 to 2000 | < 200
CCOC(=O)Nc1oc2c(-c3cc(C)nc(C)c3)nccc2c1Nc1ccc(F)c(Cl)c1 [Compound 163, Ethyl (3-((3-chloro-4-fluorophenyl)amino)-7-(2,6-dimethylpyridin-4-yl)furo[2,3-c]pyridin-2-yl)carbamate] | > 2000 | > 1000
Nc1sc2cnccc2c1Nc1ccc(F)c(Cl)c1 [Compound 121, N^3-(3-chloro-4-fluorophenyl)thieno[2,3-c]pyridine-2,3-diamine] | > 2000 | > 1000
CC(C)Oc1cccc(Nc2c(N)oc3cnccc23)c1 [Compound 37, N^3-(3-Isopropoxyphenyl)furo[2,3-c]pyridine-2,3-diamine] | > 2000 | > 1000
[NH]c1sc2ccc(Cl)cc2c1Nc1ccc(F)c(C(F)(F)F)c1 [Compound 129, hydrochloride] | > 2000 | 200 to 1000
CCOC(=O)Nc1oc2c(-c3ccc(C(N)=O)cc3)nccc2c1Nc1ccc(F)c(Cl)c1 [Compound 157, Ethyl (7-(4-carbamoylphenyl)-3-((3-chloro-4-fluorophenyl)amino)furo[2,3-c]pyridin-2-yl)carbamate] | > 2000 | > 1000
Cc1ncc(CO)c2c(Nc3ccc(F)c(Cl)c3)c(N)oc12 [Compound 56, (2-amino-3-((3-chloro-4-fluorophenyl)amino)-7-methylfuro[2,3-c]pyridin-4-yl)methanol] | > 2000 | > 1000
COC(=O)Nc1oc2cnccc2c1Nc1ccc(F)c(Cl)c1 [Compound 143, Methyl (3-((3-chloro-4-fluorophenyl)amino)furo[2,3-c]pyridin-2-yl)carbamate] | > 2000 | > 1000
Nc1oc2cnccc2c1Nc1cccc(C2CCCCC2)c1 [Compound 88, N^3-(3-Cyclohexylphenyl)furo[2,3-c]pyridine-2,3-diamine] | 500 to 2000 | > 1000
Cc1cc(-c2cccc3c(Nc4ccc(F)cc4)c(N)sc23)ccn1 [Compound 266, N^3-(4-Fluorophenyl)-7-(2-methylpyridin-4-yl)benzo[b]thiophene-2,3-diamine] | 500 to 2000 | < 200
Nc1oc2cncc(Cl)c2c1Nc1ccc(F)c(Cl)c1 [Compound 57, 4-Chloro-N^3-(3-chloro-4-fluoro-phenyl)-furo[2,3-c]pyridine-2,3-diamine] | 500 to 2000 | > 1000

SMILES | IC50 [1] [nM] | IC50 [2] [nM]
CN(c1ccccc1)c1c(N)sc2ccccc12 [Compound 135, N^3-Methyl-N^3-phenylbenzo[b]thiophene-2,3-diamine hydrochloride] | > 2000 | > 1000
Nc1sc2ccccc2c1Oc1cccc(Cl)c1 [Compound 127, 3-(3-Chlorophenoxy)benzo[b]thiophen-2-amine hydrochloride] | > 2000 | > 1000
Nc1sc2ccc(-c3ccccc3)cc2c1Nc1ccc(F)c(Cl)c1 [Compound 134, N^3-(3-chloro-4-fluorophenyl)-5-phenylbenzo[b]thiophene-2,3-diamine] | – | > 1000
Nc1oc2cnccc2c1Nc1ccc(N2CCOCC2)cc1 [Compound 11, N^3-(4-Morpholinophenyl)furo[2,3-c]pyridine-2,3-diamine] | > 2000 | > 1000
COC(=O)Nc1oc2cnccc2c1N(C(=O)OC)c1ccc(F)c(Cl)c1 [Compound 144, Methyl (3-chloro-4-fluorophenyl)(2-((methoxycarbonyl)amino)furo[2,3-c]pyridin-3-yl)carbamate] | > 2000 | > 1000
Nc1oc2cnccc2c1Nc1cccc(CC2CCC2)c1 [Compound 89, N^3-(3-(Cyclobutylmethyl)phenyl)furo[2,3-c]pyridine-2,3-diamine] | > 2000 | > 1000
Nc1oc2cnccc2c1Nc1ccc(Oc2ccccc2)cc1 [Compound 29, N^3-(4-Phenoxyphenyl)furo[2,3-c]pyridine-2,3-diamine] | > 2000 | > 1000
Nc1oc2cnccc2c1Nc1ccc(Cc2ccccc2)cc1 [Compound 23, N^3-(4-Benzylphenyl)furo[2,3-c]pyridine-2,3-diamine] | 500 to 2000 | > 1000
CCOC(=O)Nc1oc2c(-c3cc(C)nc(C)c3)nccc2c1N(C(=O)OCC)c1ccc(F)c(Cl)c1 [Compound 165, Ethyl (3-chloro-4-fluorophenyl)(7-(2,6-dimethylpyridin-4-yl)-2-((ethoxycarbonyl)amino)furo[2,3-c]pyridin-3-yl)carbamate] | > 2000 | > 1000
O=C(Nc1oc2cnccc2c1N(C(=O)OCc1ccccc1)c1ccc(F)c(Cl)c1)OCc1ccccc1 [Compound 140, Benzyl (2-(((benzyloxy)carbonyl)amino)furo[2,3-c]pyridin-3-yl)(3-chloro-4-fluorophenyl)carbamate] | – | > 1000
Cc1ccc(Nc2c(N)oc3cnccc23)c(C)c1 [Compound 54, N^3-(2,4-Dimethylphenyl)furo[2,3-c]pyridine-2,3-diamine] | 500 to 2000 | > 1000
N#Cc1cccc(Nc2c(N)oc3cnccc23)c1F [Compound 28, 3-((2-Aminofuro[2,3-c]pyridin-3-yl)amino)-2-fluorobenzonitrile] | > 2000 | > 1000
Nc1sc2c(-c3cncc4ccccc34)cccc2c1Nc1ccc(F)c(Cl)c1 [Compound 281, N^3-(3-Chloro-4-fluorophenyl)-7-(isoquinolin-4-yl)benzo[b]thiophene-2,3-diamine] | > 2000 | –
COc1cc(Nc2c(N)oc3cnccc23)cc(OC)c1 [Compound 38, N^3-(3,5-Dimethoxyphenyl)furo[2,3-c]pyridine-2,3-diamine] | – | > 1000
Nc1oc2cccnc2c1Nc1ccc(F)c(Cl)c1 [Compound 1, N^3-(3-chloro-4-fluoro-phenyl)-furo[3,2-b]pyridine-2,3-diamine] | – | < 200
